The source of these data is patent US7851436B2, “Inhibition of migration and induction of cell death by the type II collagen amino propeptides” (Washington University, priority 2007, dated 2010).

Assay [1] relates to Ch-1 cells. As to the kind of experiment: Cell adhesion assay (Ch-1 cells on wells coated with recombinant proteins). It counts as cell-based, human. Particulars: wells coated with recombinant protein. On the procedure:
Cell Adhesion Assay. Cell adhesion assays were performed using a spectrometric method. A 96-well plate was coated at 4° C. overnight with recombinant proteins. Wells were washed three times with RPMI-1640 medium containing 10% FBS. Ch-1 cells were harvested with limited trypsin digestion and plated at 5×10^4 cells per well in RPMI-1640 medium supplemented with 10% FBS for an hours. Proteins were added and incubation continued for 1 hour. The wells were washed three times with pre-warmed PBS to remove non-adherent cells. The adherent cells were fixed with 4% paraformaldehyde in PBS for 10 minutes at room temperature and stained with 0.5% toluidine blue for 5 minutes. The wells were rinsed with water and cells were solubilized with 0.1% SDS. Absorbance at 595 nm was recorded on a SpectraMax plate reader. Synthetic blocking peptides and antibodies to αVβ3 and αVβ5 integrin were pre-incubated with cells for 15 to 30 mins before they were added onto the wells in the inhibition assays.
Cell Culture. Human Chondrosarcoma cell line (Ch-1) was isolated from a portion of chondrosarcoma tumor (Chansky et al., J Orthop Res. (1998) 16(5):521-30). The Ch-1 cell line was maintained in RPMI-1640 supplemented with 10% FBS and at 37° C. in a humidified, 5% CO2 atmosphere.

Assay [2] has as its target T1, αVβ3 integrin (Homo sapiens, UniProt P05106+P06756).
T1 construct: Ch-1 membrane proteins were labeled with biotin, and PIIBNP was used to isolate the integrin molecules; endogenous in cells; host or cells: Ch-1 human chondrosarcoma cells (surface-biotinylated, lysed)
Briefly: Cell surface labeling and GST pull-down with immunoblotting. It counts as binding. The conditions noted are these: biotin-labeled Ch-1 membrane proteins, Western blot. On the procedure:
(§1) Immunoblotting. Western blotting was performed as described (7). Blots were probed with the following primary antibodies: rabbit anti αV, α2, α3, α5, β1, β3, β5 integrin and goat anti actin (Saint Cruz), chicken anti PIIBNP antiserum, and mouse anti exon 2 antiserum.
(§2) Cell Surface labeling and GST Pull-down Assay. Ch-1 cells were incubated with EZ-link Sulfo-NHS-Biotin reagent for 30 mins. according to the product instruction (Sigma). After 3 washes with 0.1 M glycine in PBS, the cells were lysed with a lysis buffer described above. The lysate was incubated with glutathione derivatized agarose beads previously bound with GST, PIIANP, PIIBNP or mPIIBNP for 1 hr. at RT. […] The membrane was washed and incubated with antibodies and then incubated with a secondary antibody coupled to horseradish peroxidase. The antibody complex was visualized by enhanced chemiluminescence.
Background: In western blotting, separated proteins are transferred to a membrane and probed.

Assay [3] has as its target T2, αVβ5 integrin (Homo sapiens, UniProt P06756+P18084).
T2 construct: Ch-1 membrane proteins were labeled with biotin, and PIIBNP was used to isolate the integrin molecules; endogenous in cells; host or cells: Ch-1 human chondrosarcoma cells (surface-biotinylated, lysed)
Described as above. The conditions noted are these: biotin-labeled Ch-1 membrane proteins, Western blot. It counts as binding. How it is done: as §1, §2

The test system of assay [4] is HeLa 229 cells. As to the kind of experiment: Cell survival assay in HeLa 229 cells. It counts as cell-based, human. On the procedure:
(§3) Cell Culture. Human Chondrosarcoma cell line (Ch-1) was isolated from a portion of chondrosarcoma tumor. […] HUVEC cells were a gift from Dr. William Frazier (Washington University) and were cultured in M199 Earle's medium with 10 units/ml of penicillin, 5 μg/ml streptomycin and 0.25 μg/ml Fungizone supplemented with 10% FBS, 0.1 mg/ml L-glutamine, 25 mM Hepes, 16 units/ml of heparin (Sigma) and 0.1 mg/ml endothelial cell mitogen (Biochemical Technologies).
(§4) Detection of Cell Death. Cells were cultured to confluence in a 24-well plate pre-coated with type I collagen, fibronectin (Sigma), and ECM Matrigel (Becton Dickinson). Proteins in serum-free medium were added to the cells. Cells were monitored by light microscopy and images were digitally photographed using a Q capture Retiga 2000R camera. Quantification of cells remaining in the well was performed by washing with PBS for three times, fixing with 4% paraformaldehyde. The cells per field (×400) were counted for three field per well (3 wells per measurement). The mean number and standard deviation (SD) were calculated.

For assay [5], the system named is MDA-MB231 cells. Briefly: Cell survival assay in MDA-MB231 cells. It counts as cell-based, human. On the procedure: as §3, §4

Entries after “also recorded” stand apart in the source; their conditions may differ.

T1 sequence (P06756 31-889 limits assumed): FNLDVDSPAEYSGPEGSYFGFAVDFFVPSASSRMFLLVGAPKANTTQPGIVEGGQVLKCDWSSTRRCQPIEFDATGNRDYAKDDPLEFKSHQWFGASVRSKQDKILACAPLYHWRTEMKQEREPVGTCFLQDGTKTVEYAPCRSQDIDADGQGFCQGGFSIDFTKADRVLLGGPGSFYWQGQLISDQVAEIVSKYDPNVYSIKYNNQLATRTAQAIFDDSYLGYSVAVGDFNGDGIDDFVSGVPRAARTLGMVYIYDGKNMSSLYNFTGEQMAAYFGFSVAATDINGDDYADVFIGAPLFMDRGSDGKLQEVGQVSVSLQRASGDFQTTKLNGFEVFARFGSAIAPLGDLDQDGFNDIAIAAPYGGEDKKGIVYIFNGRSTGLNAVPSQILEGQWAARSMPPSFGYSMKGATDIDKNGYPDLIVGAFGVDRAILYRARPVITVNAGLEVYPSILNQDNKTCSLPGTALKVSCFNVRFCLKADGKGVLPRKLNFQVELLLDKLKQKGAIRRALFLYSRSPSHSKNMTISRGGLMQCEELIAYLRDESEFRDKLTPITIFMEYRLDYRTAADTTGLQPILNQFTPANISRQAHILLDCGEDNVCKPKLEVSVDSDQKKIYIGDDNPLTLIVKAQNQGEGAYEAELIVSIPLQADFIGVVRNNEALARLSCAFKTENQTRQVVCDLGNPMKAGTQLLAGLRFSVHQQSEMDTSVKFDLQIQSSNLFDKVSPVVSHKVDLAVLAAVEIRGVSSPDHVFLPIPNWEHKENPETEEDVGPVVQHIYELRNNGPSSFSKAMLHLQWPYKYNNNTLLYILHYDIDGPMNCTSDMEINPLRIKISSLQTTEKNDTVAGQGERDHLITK
T1 sequence (P06756 891-1048 limits assumed): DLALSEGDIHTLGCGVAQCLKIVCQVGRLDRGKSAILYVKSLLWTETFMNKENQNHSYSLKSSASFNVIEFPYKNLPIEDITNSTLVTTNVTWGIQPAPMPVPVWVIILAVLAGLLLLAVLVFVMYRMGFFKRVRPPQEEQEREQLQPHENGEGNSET
T1 sequence (P05106 27-788): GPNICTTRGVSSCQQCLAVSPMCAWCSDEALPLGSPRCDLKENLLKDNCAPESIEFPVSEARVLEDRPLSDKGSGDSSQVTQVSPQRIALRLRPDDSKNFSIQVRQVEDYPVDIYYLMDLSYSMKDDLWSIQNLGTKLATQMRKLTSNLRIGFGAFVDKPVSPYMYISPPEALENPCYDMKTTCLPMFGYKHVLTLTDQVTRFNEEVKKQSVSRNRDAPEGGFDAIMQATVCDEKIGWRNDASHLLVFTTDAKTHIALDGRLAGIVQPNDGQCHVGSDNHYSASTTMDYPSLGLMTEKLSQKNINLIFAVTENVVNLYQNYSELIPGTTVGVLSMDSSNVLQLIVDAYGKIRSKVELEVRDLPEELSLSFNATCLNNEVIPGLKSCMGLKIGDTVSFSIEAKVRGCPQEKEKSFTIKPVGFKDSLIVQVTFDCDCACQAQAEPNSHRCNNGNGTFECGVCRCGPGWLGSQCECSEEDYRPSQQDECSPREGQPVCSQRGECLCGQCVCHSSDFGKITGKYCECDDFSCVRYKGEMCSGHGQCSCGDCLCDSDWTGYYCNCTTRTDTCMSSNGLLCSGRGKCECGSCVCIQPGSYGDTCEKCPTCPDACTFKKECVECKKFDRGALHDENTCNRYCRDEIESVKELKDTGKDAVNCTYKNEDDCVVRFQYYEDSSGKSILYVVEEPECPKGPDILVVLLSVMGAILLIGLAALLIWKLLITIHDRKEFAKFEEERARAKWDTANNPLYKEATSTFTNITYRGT
T2 sequence (P06756 31-889 limits assumed): as the sequence (P06756 31-889 limits assumed) above
T2 sequence (P06756 891-1048 limits assumed): as the sequence (P06756 891-1048 limits assumed) above
T2 sequence (P18084 24-799): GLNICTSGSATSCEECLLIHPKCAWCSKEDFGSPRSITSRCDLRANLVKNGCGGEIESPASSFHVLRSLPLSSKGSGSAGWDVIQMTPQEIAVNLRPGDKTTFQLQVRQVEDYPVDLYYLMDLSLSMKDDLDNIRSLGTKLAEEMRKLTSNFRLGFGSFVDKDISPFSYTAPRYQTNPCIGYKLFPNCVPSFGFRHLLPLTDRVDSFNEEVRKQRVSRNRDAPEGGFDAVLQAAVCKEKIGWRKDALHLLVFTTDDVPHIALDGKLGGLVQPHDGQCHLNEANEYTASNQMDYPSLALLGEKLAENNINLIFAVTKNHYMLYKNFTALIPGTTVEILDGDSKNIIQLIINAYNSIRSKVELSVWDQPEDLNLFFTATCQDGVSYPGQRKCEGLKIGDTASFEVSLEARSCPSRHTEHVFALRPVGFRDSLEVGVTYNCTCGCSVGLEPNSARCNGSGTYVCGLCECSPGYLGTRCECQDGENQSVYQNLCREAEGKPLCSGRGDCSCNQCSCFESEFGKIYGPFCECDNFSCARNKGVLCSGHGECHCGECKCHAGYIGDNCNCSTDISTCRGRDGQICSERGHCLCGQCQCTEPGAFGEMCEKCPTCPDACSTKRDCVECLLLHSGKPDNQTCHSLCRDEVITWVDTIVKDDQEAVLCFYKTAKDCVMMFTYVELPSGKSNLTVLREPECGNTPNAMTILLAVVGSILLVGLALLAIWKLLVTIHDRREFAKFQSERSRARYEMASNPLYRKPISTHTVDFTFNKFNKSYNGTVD

With “PIIBNP: Recombinant human Type IIB procollagen NH2-propeptide (exons 3-8, lacking exon 2), expressed as GST fusion protein”, the “adhesion to Ch-1 cells” value in assay [1] is listed as “shown to adhere”; in assay [1] (listed as GST-PIIBNP), “strong binding”. The “binding to integrin αVβ3” value in assay [2] is “only integrins identified; also recorded: binds”. Besides, in assay [3], the “binding to integrin αVβ5” value is reported as “only integrins identified; also recorded: binds”. For the same substance, the cell death is given as more than 80% in assay [4] (HeLa 229 cells, FIG. 4M) and more than 70% in assay [5] (MDA-MB231 cells, FIG. 4L). This substance gave a survival in assay [4] (HeLa cells) of 20%. Also, in assay [5] (MDA cells), the cell survival amounted to 30%.
